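Assay format: 96-well plates, 48-hour exposure. Here, GI50 denotes the concentration required for 50% inhibition of growth.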 Active and inactive are the calls of the source. Cut-off read from the data, not from the text of the source: active = GI50 up to about 1.1 µM and inactive = higher.
Key:
Assay in all cases: NCI tumour cell line growth inhibition, 48 h
786-0 = system: 786-0
A498 = system: A498
A549 = system: A549
ACHN = system: ACHN
BT-549 = system: BT-549
CAKI-1 = system: CAKI-1
CCRF-CEM = system: CCRF-CEM
COLO 205 = system: COLO 205
DU-145 = system: DU-145
EKVX = system: EKVX
HCT-116 = system: HCT-116
HCT-15 = system: HCT-15
HL-60 = system: HL-60
HOP-62 = system: HOP-62
HOP-92 = system: HOP-92
HT-29 = system: HT-29
Hs-578T = system: Hs-578T
IGROV-1 = system: IGROV-1
K562 = system: K562
KM12 = system: KM12
LOX IMVI = system: LOX IMVI
M14 = system: M14
MCF7 = system: MCF7
MDA-MB-231 = system: MDA-MB-231
MDA-MB-435 = system: MDA-MB-435
MDA-N = system: MDA-N
MOLT-4 = system: MOLT-4
Malme-3M = system: Malme-3M
NCI-H226 = system: NCI-H226
NCI-H23 = system: NCI-H23
NCI-H460 = system: NCI-H460
NCI-H522 = system: NCI-H522
NCI/ADR-RES = system: NCI/ADR-RES
OVCAR-3 = system: OVCAR-3
OVCAR-4 = system: OVCAR-4
OVCAR-5 = system: OVCAR-5
OVCAR-8 = system: OVCAR-8
RPMI-8226 = system: RPMI-8226
RXF 393 = system: RXF 393
SF-268 = system: SF-268
SF-295 = system: SF-295
SF-539 = system: SF-539
SK-MEL-28 = system: SK-MEL-28
SK-MEL-5 = system: SK-MEL-5
SK-OV-3 = system: SK-OV-3
SN12C = system: SN12C
SNB-19 = system: SNB-19
SNB-75 = system: SNB-75
SR = system: SR
SW-620 = system: SW-620
T47D = system: T47D
TK-10 = system: TK-10
U-251 = system: U-251
UACC-257 = system: UACC-257
UACC-62 = system: UACC-62
UO-31 = system: UO-31
HCC 2998 = system: HCC 2998
SK-MEL-2 = system: SK-MEL-2

Question: For `Clc1nc(Cl)c(-c2ccccc2)c(Cl)n1`, which GI50 (786-0) is on record?
Answer: 2.5 µM (inactive)

Question: What about the GI50 (A498) of the same molecule?
Answer: 16.2 µM (inactive)

Question: And the GI50 (A549)?
Answer: 17.1 µM (inactive)

Question: And the GI50 (ACHN)?
Answer: 0.29 µM (active)

Question: And the GI50 (BT-549)?
Answer: 2.61 µM (inactive)

Question: And the GI50 (CAKI-1)?
Answer: 1.87 µM (inactive)

Question: And the GI50 (CCRF-CEM)?
Answer: 2.27 µM (inactive)

Question: And the GI50 (COLO 205)?
Answer: 1.84 µM (inactive)

Question: What about the GI50 (DU-145) of the same molecule?
Answer: 13.5 µM (inactive)

Question: What about the GI50 (EKVX) of the same molecule?
Answer: 1.8 µM (inactive)

Question: And the GI50 (HCT-116)?
Answer: 1.84 µM (inactive)

Question: What about the GI50 (HCT-15) of the same molecule?
Answer: 2.42 µM

Question: What about the GI50 (HL-60) of the same molecule?
Answer: 2.15 µM (inactive)

Question: What about the GI50 (HOP-62) of the same molecule?
Answer: 16.9 µM (inactive)

Question: And the GI50 (HOP-92)?
Answer: 5.45 µM (inactive)

Question: And the GI50 (HT-29)?
Answer: 7.66 µM (inactive)

Question: What about the GI50 (Hs-578T) of the same molecule?
Answer: 3.83 µM (inactive)

Question: And the GI50 (IGROV-1)?
Answer: 4.92 µM (inactive)

Question: And the GI50 (K562)?
Answer: 2.9 µM (inactive)

Question: And the GI50 (KM12)?
Answer: 4.68 µM (inactive)

Question: What about the GI50 (LOX IMVI) of the same molecule?
Answer: 1.66 µM (inactive)

Question: What about the GI50 (M14) of the same molecule?
Answer: 1.62 µM (inactive)

Question: And the GI50 (MCF7)?
Answer: 3.04 µM (inactive)

Question: What about the GI50 (MDA-MB-231) of the same molecule?
Answer: 3.24 µM (inactive)

Question: And the GI50 (MDA-MB-435)?
Answer: 3.24 µM (inactive)

Question: And the GI50 (MDA-N)?
Answer: 2.49 µM (inactive)

Question: What about the GI50 (MOLT-4) of the same molecule?
Answer: 2.96 µM (inactive)

Question: And the GI50 (Malme-3M)?
Answer: 2.02 µM (inactive)

Question: What about the GI50 (NCI-H226) of the same molecule?
Answer: 2.3 µM (inactive)

Question: What about the GI50 (NCI-H23) of the same molecule?
Answer: 4.51 µM (inactive)

Question: And the GI50 (NCI-H460)?
Answer: 13.4 µM (inactive)

Question: And the GI50 (NCI-H522)?
Answer: 1.55 µM (inactive)

Question: And the GI50 (NCI/ADR-RES)?
Answer: 3.42 µM (inactive)

Question: And the GI50 (OVCAR-3)?
Answer: 3.57 µM (inactive)

Question: And the GI50 (OVCAR-4)?
Answer: 2.51 µM (inactive)

Question: And the GI50 (OVCAR-5)?
Answer: 4.61 µM (inactive)

Question: What about the GI50 (OVCAR-8) of the same molecule?
Answer: 2.75 µM (inactive)

Question: What about the GI50 (RPMI-8226) of the same molecule?
Answer: 2.69 µM (inactive)

Question: And the GI50 (RXF 393)?
Answer: 2.18 µM (inactive)

Question: What about the GI50 (SF-268) of the same molecule?
Answer: 3.19 µM (inactive)

Question: What about the GI50 (SF-295) of the same molecule?
Answer: 12.7 µM (inactive)

Question: And the GI50 (SF-539)?
Answer: 5.42 µM (inactive)

Question: And the GI50 (SK-MEL-28)?
Answer: 5.96 µM (inactive)

Question: And the GI50 (SK-MEL-5)?
Answer: 3.18 µM (inactive)

Question: What about the GI50 (SK-OV-3) of the same molecule?
Answer: 11.2 µM (inactive)

Question: What about the GI50 (SN12C) of the same molecule?
Answer: 3.14 µM (inactive)

Question: What about the GI50 (SNB-19) of the same molecule?
Answer: 14.5 µM (inactive)

Question: And the GI50 (SNB-75)?
Answer: 0.64 µM (active)

Question: And the GI50 (SR)?
Answer: 2.48 µM (inactive)

Question: What about the GI50 (SW-620) of the same molecule?
Answer: 2.26 µM (inactive)

Question: And the GI50 (T47D)?
Answer: 2.59 µM (inactive)

Question: And the GI50 (TK-10)?
Answer: 10.1 µM (inactive)

Question: And the GI50 (U-251)?
Answer: 5.32 µM (inactive)

Question: And the GI50 (UACC-257)?
Answer: 2.82 µM (inactive)

Question: And the GI50 (UACC-62)?
Answer: 3.09 µM (inactive)

Question: What about the GI50 (UO-31) of the same molecule?
Answer: 4.61 µM (inactive)

Question: Which results are given for `CCc1n[nH]c(=O)n1CC`?
Answer: GI50 (786-0): > 100 µM (inactive); GI50 (A498): > 100 µM (inactive); GI50 (A549): > 100 µM (inactive); GI50 (ACHN): > 100 µM (inactive); GI50 (BT-549): > 100 µM (inactive); GI50 (CAKI-1): > 100 µM (inactive); GI50 (CCRF-CEM): > 100 µM (inactive); GI50 (COLO 205): > 100 µM (inactive); GI50 (DU-145): > 100 µM (inactive); GI50 (EKVX): > 100 µM (inactive); GI50 (HCC 2998): > 100 µM (inactive); GI50 (HCT-116): > 100 µM (inactive); GI50 (HCT-15): > 100 µM; GI50 (HL-60): 21.7 µM (inactive); GI50 (HOP-62): > 100 µM (inactive); GI50 (HOP-92): > 100 µM (inactive); GI50 (HT-29): > 100 µM (inactive); GI50 (Hs-578T): > 100 µM (inactive); GI50 (IGROV-1): > 100 µM (inactive); GI50 (K562): > 100 µM (inactive); GI50 (KM12): > 100 µM (inactive); GI50 (LOX IMVI): > 100 µM (inactive); GI50 (MCF7): > 100 µM (inactive); GI50 (MDA-MB-231): > 100 µM (inactive); GI50 (MDA-MB-435): > 100 µM (inactive); GI50 (MDA-N): > 100 µM (inactive); GI50 (MOLT-4): > 100 µM (inactive); GI50 (Malme-3M): > 100 µM (inactive); GI50 (NCI-H226): > 100 µM (inactive); GI50 (NCI-H23): > 100 µM (inactive); GI50 (NCI-H460): > 100 µM (inactive); GI50 (NCI-H522): > 100 µM (inactive); GI50 (NCI/ADR-RES): > 100 µM (inactive); GI50 (OVCAR-3): > 100 µM (inactive); GI50 (OVCAR-4): > 100 µM (inactive); GI50 (OVCAR-5): > 100 µM (inactive); GI50 (OVCAR-8): > 100 µM (inactive); GI50 (RPMI-8226): > 100 µM (inactive); GI50 (SF-268): > 100 µM (inactive); GI50 (SF-295): > 100 µM (inactive); GI50 (SF-539): > 100 µM (inactive); GI50 (SK-MEL-28): > 100 µM (inactive); GI50 (SK-MEL-2): > 100 µM (inactive); GI50 (SK-MEL-5): > 100 µM (inactive); GI50 (SK-OV-3): > 100 µM (inactive); GI50 (SN12C): > 100 µM (inactive); GI50 (SNB-19): > 100 µM (inactive); GI50 (SR): > 100 µM (inactive); GI50 (SW-620): > 100 µM (inactive); GI50 (T47D): > 100 µM (inactive); GI50 (TK-10): > 100 µM (inactive); GI50 (U-251): > 100 µM (inactive); GI50 (UACC-257): > 100 µM (inactive); GI50 (UACC-62): > 100 µM (inactive); GI50 (UO-31): > 100 µM (inactive)

— ChEMBL document CHEMBL1201862, “PubChem BioAssay data set” (2004)
